Results reported in patent publication US5298502A, “Method and composition for photodynamic treatment and detection of tumors” (priority 1991, dated 1994).

Key:
[1] = LD50, single oral dose, rats; conditions: rat, in vivo, single oral dose in corn oil containing 15% of the agent, 14-day period
[2] = system: DBA/2 Ha mice with SMT-F subcutaneous tumors; test: Proto IX content of tissues of tumor-bearing mice fed the agent (Example 6); format: in vivo
Protocol: In this Example the enzyme-inhibiting agents were added to the feed of tumor-bearing mice; for some of the mice, used as a control, no agent was added to the feed. The mice were then sacrificed and their kidneys, intestines, adrenal glands, liver and tumor were removed and analyzed for their content of Proto IX. The following enzyme-inhibiting agents were employed: [drawing 10]
More particularly, the mice were DBA/2 Ha mice which had been injected with SMT-F subcutaneous tumors on Day 0 in the right shoulder. The mice, individually housed, received untreated Purina Rodent Chow 5001 Mash on Day 1; thereafter on Days 2 through 10 the mice received the same Mash treated with 2000 ppm of the inhibiting agent being tested (or, for the controls, the same untreated Mash). The treatment of the Mash was effected by blending it with a small amount of an acetone solution of the agent to be tested. The mice were then sacrificed on Day 10, except for the mouse treated with the agent designated as 6j; the latter was sacrificed on Day 7. The tissues were refrigerated at 4° C. overnight, then blotted dry, and the fresh weight of each tissue sample was recorded. The tissues were then homogenized in 5 mL, or lo mL in the cases of intestines and liver, of acetone-0.1 N NH4 OH (9:I, v/v). The homogenates were then centrifuged at 1500 g and the supernatants were analyzed on a SPEX FAII2 spectrofluorometer; excitation 400 nm, emission 630 nm wavelengths, the optima for Proto IX. Proto IX accumulation was determined as CPS (fluorescent counts per second emitted) per gram of tissue. The results are tabulated below (results are averages for two mice for each treatment, except for treatments with agents 6f, 6h, 6i and 6j in each of which only one mouse was treated): […]

[3] = system: dark-bleached Chlamydomonas reinhardi mutant y-1; test: Light-Induced Greening Inhibition Test; format: cell-based; conditions: compounds ionized in water, operative ion negatively charged
Protocol: Another test of the capacity of a material for disrupting the plasmalemma of plant material is the Light-Induced Greening Inhibition Test described more particularly in Appendix B below.
Stock Cultures of y-1 cells are maintained axenically in liquid culture on Medium A or M, preferably on Medium M, in a 14/10 hour light/dark cycle at 25° C. in Erlenmeyer flasks which are stoppered with polyurethane plugs. The stock cultures are incubated without supplemental aeration on rotary shakers at 125 rpm. The light intensity at the culture level is 120 μE m^-2 sec^-1 (PAR). Under these conditions the cultures are in a semi-synchronous mode of growth until they reach a stationary phase of 2-4×10^6 cells/mL.
Cells from the stationary phase of stock cultures grown in the presence of light (7.5 mL) are transferred to 750 mL of Medium A in an Erlenmeyer flask. […]
An aqueous, 10% sodium dodecyl sulfate solution (250 μL) and methanol (1 mL) is added to each test well and is mixed thoroughly. […] The supernatants are removed and analyzed in a Beckman Model 35 spectrophotometer between 350 nm and 500 nm for the presence of protophorphrin IX, at 668 nm which is the absorption peak of chlorophyll in this solvent system, and at 720 nm to use as a turbidity background reading.
For each well a greenness value is obtained by subtracting the 720 nm reading from the 668 nm reading. […]

[4] = LD50, single oral dose, mice; conditions: mouse, in vivo, single oral dose in corn oil and 5% of the agent, 14-day period
[5] = 2000 ppm in feed Days 2-10, sacrificed Day 10 (6j Day 7)

Cc1nn(-c2cc(NS(C)(=O)=O)c(Cl)cc2Cl)c(=O)n1C(F)F [Agent 6c]
LD50 at 336 h [1]: > 2600 mg/kg
concentration of Proto IX in tissue, Adrenal ([2]; 2000 ppm in feed): 126 ug of Proto IX per gram of tis
concentration of Proto IX in tissue, Intestine ([2]; 2000 ppm in feed): 91 ug of Proto IX per gram of tis
concentration of Proto IX in tissue, Kidneys ([2]; 2000 ppm in feed): 148 ug of Proto IX per gram of tis
concentration of Proto IX in tissue, Liver ([2]; 2000 ppm in feed): 25 ug of Proto IX per gram of tis
concentration of Proto IX in tissue, Tumor ([2]; 2000 ppm in feed): 131 ug of Proto IX per gram of tis
Proto IX Mean Cps per gram, Adrenal [2, 5]: 13790 Cps per gram × 10^3
Proto IX Mean Cps per gram, Kidneys [2, 5]: 16186 Cps per gram × 10^3
Proto IX Mean Cps per gram, Liver [2, 5]: 2739 Cps per gram × 10^3
Proto IX Mean Cps per gram, Tumor [2, 5]: 14336 Cps per gram × 10^3
Weight of Tumor as excised [2, 5]: 157 mg
Proto IX Mean Cps per gram, Intestine ([2]; 2000 ppm in feed, samples diluted with 3 parts basic acetone to one part sample): 9937 Cps per gram × 10^3
response in light-greening inhibition test [3]: do not respond well in this test
LD50 at 336 h [4]: > 700 mg/kg
